# In patent US20140105996A1, “Avian-Based Treatment” (Cocky Smart Pty Ltd, priority 2011, published 2014):
# Test system: A2058 melanoma cells
# Assay: Growth of A2058 melanoma cells with EP-2 or TPP (Examples 1-3)
# Format: cell-based
# Procedure: Saturated solutions of bird extract EP-2, 10 ng/mL triphenyl phosphate (TPP) or control media were used to saturate growth medium containing melanoma cells (A2058 Melanoma cells) at a concentration of approximately 1.2×10^4 cells/well or 1.0×10^4 cells/well. All results are average cell counts for experiments performed in triplicate (see FIG. 1). TPP was investigated on the basis of the findings in Zurhaar WO2008/019452 “Insect Repellent” that the insect repellent factor in an avian extract was TPP.
# Pooled solvent vehicle (ethanol, methanol and pentane—used for EP-2 extraction), avian extract EP-2 and TPP were applied to 4×10^4 A2058 cells in 12 well plates.
# To further investigate the effect of EP-2 on cells in general, a ⅕ dilution of avian extract EP-2 was placed on 1×10^4 A2058 melanoma cells and HEK293 non-cancerous human embryonic kidney cells.
smiles,measurement,setting,value
"O=P(Oc1ccccc1)(Oc1ccccc1)Oc1ccccc1 [TPP, Triphenyl phosphate]",lower growth rate than cells containing control medium,"Example 1, by day 9, 10 ng/mL TPP",25%
same,effect on cell growth,Example 2,moderate effect
